Data as given in patent publication US7396837B2, “Antitumoral analogs of lamellarins” (Pharma Mar, S.A.U., priority 2002, dated 2008).
Where two headings read alike, the source gives them in different places.

Assays:
Format in all cases: cell-based
HeLa-APL = assay: SRB colorimetric cell growth inhibition assay, HeLa-APL (aplidine resistant); conditions: Homo sapiens, HELA-APL; for GI50: GI=growth inhibition, read-out: GI50 HELA-APL; for CC50: cell killing (cytotoxic effect), read-out: LC50 HELA-APL; for IC (TGI): total growth inhibition (cytostatic effect), read-out: TGI HELA-APL
Outline: (§1)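 Cancer cells grown in vitro were continuously treated with compound. Cell mass was then determined by SRB staining and expressed as growth inhibition.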

DU-145 = assay: SRB colorimetric cell growth inhibition assay, DU-145; conditions: for GI50: GI=growth inhibition, read-out: GI50 DU-145; for CC50: cell killing (cytotoxic effect), read-out: LC50 DU-145
Outline: as §1

LNCaP = assay: SRB colorimetric cell growth inhibition assay, LNCaP; conditions: LN-caP; for GI50: GI=growth inhibition, read-out: GI50 LN-caP; for CC50: cell killing (cytotoxic effect), read-out: LC50 LN-caP
Outline: as §1

HeLa = assay: SRB colorimetric cell growth inhibition assay, HeLa; conditions: Homo sapiens, HeLa; for GI50: GI=growth inhibition, read-out: GI50 HELA; for CC50: cell killing (cytotoxic effect), read-out: LC50 HELA; for IC (TGI): total growth inhibition (cytostatic effect), read-out: TGI HELA
Outline: as §1

A-549 = assay: SRB colorimetric cell growth inhibition assay, A-549; conditions: for GI50: GI=growth inhibition, read-out: GI50 A-549; for CC50: cell killing (cytotoxic effect), read-out: LC50 A-549; for IC (TGI): total growth inhibition (cytostatic effect), read-out: TGI A-549
Outline: as §1

PANC-1 = assay: SRB colorimetric cell growth inhibition assay, PANC-1; conditions: for CC50: cell killing (cytotoxic effect), read-out: LC50 PANC-1; for IC (TGI): total growth inhibition (cytostatic effect), read-out: TGI PANC-1; for GI50: GI=growth inhibition, read-out: GI50 PANC-1
Outline: as §1

LoVo-Dox = assay: SRB colorimetric cell growth inhibition assay, LoVo-Dox (MDR); conditions: LOVO-DOX; for CC50: cell killing (cytotoxic effect), read-out: LC50 LOVO-DOX; for IC (TGI): total growth inhibition (cytostatic effect), read-out: TGI LOVO-DOX; for GI50: GI=growth inhibition, read-out: GI50 LOVO-DOX
Outline: as §1

LoVo = assay: SRB colorimetric cell growth inhibition assay, LoVo; conditions: for CC50: cell killing (cytotoxic effect), read-out: LC50 LOVO; for IC (TGI): total growth inhibition (cytostatic effect), read-out: TGI LOVO; for GI50: GI=growth inhibition, read-out: GI50 LOVO
Outline: as §1

SK-MEL-28 = assay: SRB colorimetric cell growth inhibition assay, SK-MEL-28; conditions: for GI50: GI=growth inhibition, read-out: GI50 MEL-28; for CC50: cell killing (cytotoxic effect), read-out: LC50 MEL-28
Outline: as §1

K-562 = assay: SRB colorimetric cell growth inhibition assay, K-562; conditions: for CC50: cell killing (cytotoxic effect), read-out: LC50 K-562; for IC (TGI): total growth inhibition (cytostatic effect), read-out: TGI K-562; for GI50: GI=growth inhibition, read-out: GI50 K-562
Outline: as §1

SK-BR-3 = assay: SRB colorimetric cell growth inhibition assay, SK-BR-3; conditions: for GI50: GI=growth inhibition, read-out: GI50 SK-BR-3; for CC50: cell killing (cytotoxic effect), read-out: LC50 SK-BR-3
Outline: as §1

IGROV-ET = assay: SRB colorimetric cell growth inhibition assay, IGROV-ET (ET-743 resistant); conditions: IGROV-ET; for GI50: GI=growth inhibition, read-out: GI50 IGROV-ET; for CC50: cell killing (cytotoxic effect), read-out: LC50 IGROV-ET
Outline: as §1

IGROV = assay: SRB colorimetric cell growth inhibition assay, IGROV; conditions: IGROV; for GI50: GI=growth inhibition, read-out: GI50 IGROV; for CC50: cell killing (cytotoxic effect), read-out: LC50 IGROV
Outline: as §1

HT-29 = assay: SRB colorimetric cell growth inhibition assay, HT-29; conditions: for GI50: GI=growth inhibition, read-out: GI50 HT-29; for CC50: cell killing (cytotoxic effect), read-out: LC50 HT-29; for IC (TGI): total growth inhibition (cytostatic effect), read-out: TGI HT-29
Outline: as §1

[1] = total growth inhibition (cytostatic effect)
[2] = Homo sapiens, SK-MEL-28, MEL-28

In the case of `COc1cc(-c2c3c4cc(OC)c(OC(=O)[C@@H](N)Cc5ccccc5)cc4oc(=O)c3n3ccc4c(OC(=O)[C@@H](N)Cc5ccccc5)c(OC)c(OC)cc4c23)ccc1OC(=O)[C@@H](N)Cc1ccccc1` [Compound 207], the GI50 (HeLa-APL) is reported as 0.0779 µM, the CC50 (HeLa-APL) is reported as 3.71 µM and the IC (TGI) (HeLa-APL) is reported as 1.5 µM. The GI50 (DU-145; DU-145) was 0.023 µM, the CC50 (DU-145; DU-145) was 0.0748 µM and the “TGI DU-145” value (DU-145; DU-145, total growth inhibition (cytostatic effect)) was 4.16E−08 Molar. The GI50 (LNCaP) was 0.127 µM, the CC50 (LNCaP) was 4.1 µM and the “TGI LN-caP” value (LNCaP; [1]) was 9.44E−07 Molar. The GI50 (HeLa) was 0.0422 µM, the CC50 (HeLa) was 3.34 µM and the IC (TGI) (HeLa) was 1.23 µM. It also gave a GI50 (A-549; A-549) of 0.0914 µM, a CC50 (A-549; Homo sapiens, A549, A-549) of 3.55 µM and an IC (TGI) (A-549; Homo sapiens, A549, A-549) of 1.02 µM. The CC50 (PANC-1; Homo sapiens, PANC-1, PANC-1) was 9.26 µM, the IC (TGI) (PANC-1; Homo sapiens, PANC-1, PANC-1) was 2.37 µM and the GI50 (PANC-1; PANC-1) was 0.127 µM. It also gave a CC50 (LoVo-Dox; Homo sapiens) of 9.26 µM, an IC (TGI) (LoVo-Dox; Homo sapiens) of 2.85 µM and a GI50 (LoVo-Dox) of 0.316 µM. For the same molecule, the CC50 (LoVo; Homo sapiens, LoVo) was 0.868 µM, the IC (TGI) (LoVo; Homo sapiens, LoVo) was 0.405 µM and the GI50 (LoVo; LOVO) was 0.189 µM. The GI50 (SK-MEL-28; MEL-28) was 0.0444 µM, the CC50 (SK-MEL-28; MEL-28) was 4.6 µM and the “TGI MEL-28” value (SK-MEL-28; MEL-28, total growth inhibition (cytostatic effect)) was 2.45E−07 Molar. For the same molecule, the CC50 (K-562; Homo sapiens, K562, K-562) was 9.26 µM, the IC (TGI) (K-562; Homo sapiens, K562, K-562) was 3.06 µM and the GI50 (K-562; K-562) was 0.092 µM. For the same molecule, the GI50 (SK-BR-3; SK-BR-3) was 0.202 µM, the CC50 (SK-BR-3; SK-BR-3) was 4.21 µM and the “TGI SK-BR-3” value (SK-BR-3; SK-BR-3, total growth inhibition (cytostatic effect)) was 1.07E−06 Molar. The GI50 (IGROV-ET) was 0.0436 µM, the CC50 (IGROV-ET) was 2.38 µM and the “TGI IGROV-ET” value (IGROV-ET; [1]) was 2.86E−07 Molar. The GI50 (IGROV) was 0.0763 µM, the CC50 (IGROV) was 1.55 µM and the “TGI IGROV” value (IGROV; [1]) was 3.18E−07 Molar. The GI50 (HT-29; HT-29) was 3.77 µM, the CC50 (HT-29; Homo sapiens, HT-29, HT-29) was 9.26 µM and the IC (TGI) (HT-29; Homo sapiens, HT-29, HT-29) was 9.26 µM.
`COc1cc2c(cc1O)oc(=O)c1c2c(-c2cccc([N+](=O)[O-])c2)c2c3cc(OC)c(O)cc3ccn21` [Compound 221] gave a GI50 (HeLa-APL) of 0.0796 µM, a CC50 (HeLa-APL) of 20.1 µM and an IC (TGI) (HeLa-APL) of 20.1 µM. It also gave a GI50 (DU-145; Homo sapiens, DU-145, DU-145) of 0.0431 µM, a CC50 (DU-145; Homo sapiens, DU-145, DU-145) of 20.1 µM and an IC (TGI) (DU-145; Homo sapiens, DU-145, DU-145, total growth inhibition (cytostatic effect), read-out: TGI DU-145) of 0.257 µM. For the same molecule, the GI50 (LNCaP; Homo sapiens, LNCaP) was 0.0722 µM, the CC50 (LNCaP; Homo sapiens, LNCaP) was 20.1 µM and the IC (TGI) (LNCaP; Homo sapiens, LNCaP, total growth inhibition (cytostatic effect), read-out: TGI LN-caP) was 5.02 µM. It also gave a GI50 (HeLa) of 0.0564 µM, a CC50 (HeLa) of 20.1 µM and an IC (TGI) (HeLa) of 20.1 µM. The GI50 (A-549; Homo sapiens, A549, A-549) was 0.0802 µM, the CC50 (A-549; Homo sapiens, A549, A-549) was 20.1 µM and the IC (TGI) (A-549; Homo sapiens, A549, A-549) was 20.1 µM. For the same molecule, the GI50 (PANC-1; Homo sapiens, PANC-1, PANC-1) was 0.0786 µM, the CC50 (PANC-1; Homo sapiens, PANC-1, PANC-1) was 20.1 µM and the IC (TGI) (PANC-1; Homo sapiens, PANC-1, PANC-1) was 20.1 µM. It also gave a GI50 (LoVo-Dox; Homo sapiens) of 2.83 µM, a CC50 (LoVo-Dox; Homo sapiens) of 20.1 µM and an IC (TGI) (LoVo-Dox; Homo sapiens) of 14.2 µM. The GI50 (LoVo; Homo sapiens, LoVo) was 2.41 µM, the CC50 (LoVo; Homo sapiens, LoVo) was 15.9 µM and the IC (TGI) (LoVo; Homo sapiens, LoVo) was 6.2 µM. For the same molecule, the GI50 (SK-MEL-28; [2]) was 0.106 µM, the CC50 (SK-MEL-28; [2]) was 20.1 µM and the IC (TGI) (SK-MEL-28; Homo sapiens, SK-MEL-28, MEL-28, total growth inhibition (cytostatic effect), read-out: TGI MEL-28) was 20.1 µM. It also gave a GI50 (K-562; Homo sapiens, K562, K-562) of 0.0883 µM, a CC50 (K-562; Homo sapiens, K562, K-562) of 20.1 µM and an IC (TGI) (K-562; Homo sapiens, K562, K-562) of 20.1 µM. For the same molecule, the GI50 (SK-BR-3; Homo sapiens, SK-BR-3, SK-BR-3) was 1.53 µM, the CC50 (SK-BR-3; Homo sapiens, SK-BR-3, SK-BR-3) was 20.1 µM and the IC (TGI) (SK-BR-3; Homo sapiens, SK-BR-3, SK-BR-3, total growth inhibition (cytostatic effect), read-out: TGI SK-BR-3) was 12.9 µM. It also gave a GI50 (IGROV-ET; Homo sapiens) of 0.0648 µM, a CC50 (IGROV-ET; Homo sapiens) of 20.1 µM and an IC (TGI) (IGROV-ET; Homo sapiens, total growth inhibition (cytostatic effect), read-out: TGI IGROV-ET) of 20.1 µM. For the same molecule, the GI50 (IGROV; Homo sapiens) was 0.0819 µM, the CC50 (IGROV; Homo sapiens) was 20.1 µM and the IC (TGI) (IGROV; Homo sapiens, total growth inhibition (cytostatic effect), read-out: TGI IGROV) was 20.1 µM. The GI50 (HT-29; Homo sapiens, HT-29, HT-29) was 20.1 µM, the CC50 (HT-29; Homo sapiens, HT-29, HT-29) was 20.1 µM and the IC (TGI) (HT-29; Homo sapiens, HT-29, HT-29) was 20.1 µM.
